# From patent US8226989B2, “Anti-adipocyte fatty acid-binding protein (AP2), anti-flap and anti-CySLT1 receptor herbal compositions” (Laila Impex, priority 2008, dated 2012)
# System: adipocyte fatty acid-binding protein aP2
# Test: aP2 protein expression in LPS induced THP-1 monocyte-macrophage cells (immuno-western blot)
# Assay type: cell-based, human
# Details: THP-1 cells pre-treated 2 h, then LPS; extracts 5 or 10 μg/ml, 5-Loxin 5 μg/ml, montelukast 1 μM, NDGA 10 μM
# Experimental: In this experiment, THP-1 human monocyte-macrophage cells were pre-treated with 5 or 10 μg/ml of each ingredient for 2 h and thereafter printed with LPS to induce the inflammatory response. The cellular proteins were extracted by cell lysis buffer and subjected to Immuno-Western blot to detect the modulation of expression of aP2 protein.
# The cellular proteins were extracted by cell lysis buffer and subjected to immuno-western blot to detect the modulation of expression of aP2 protein.
# Similar experiment was also conducted on Aegle marmelos, Zingiber officinale and G. mangostana extracts.
structure (smiles),measurement,value
"CC(Cc1ccc(O)c(O)c1)C(C)Cc1ccc(O)c(O)c1 (stereo not shown) [NDGA, Nordihydroguaiaretic Acid]",inhibition of LPS induced aP2 protein expression,significantly reduced
